Experimental data taken from ChEMBL document CHEMBL5625187, “A facile and selective derivatization approach on kynurenine-NH2 in daptomycin, leading to the discovery of hexakynomycin to combat multidrug-resistant Gram-positive pathogens especially daptomycin-resistant bacteria” (Eur J Med Chem, 2023).
Values after ≈ are worked out from the molar mass of the structure shown. Active and inactive are the calls of the source. The calls are words filed in the database; no cut-off is given here.

Assays:
Enterococcus faecium [1] = test: Antibacterial activity against glycopeptide-resistant Enterococcus faecium Efm-HS-0649 assessed as reduction in microbial growth incubated for 24 hrs by broth microdilution method; assay type: functional
Staphylococcus aureus [2] = test: Antibacterial activity against Staphylococcus aureus assessed as reduction in bacterial growth incubated for 16 to 24 hrs in presence of CAMHB medium by serial dilution method; assay type: functional; conditions: time 16-24 hrs
Staphylococcus aureus [3] = test: Antibacterial activity against methicillin-resistant Staphylococcus aureus USA300 assessed as reduction in microbial growth incubated for 24 hrs by broth microdilution method; assay type: functional
Staphylococcus aureus [4] = test: Induction of membrane disruption in Staphylococcus aureus at 4 to 16 ug/ml incubated for 4 hrs by propidium iodide staining based flow cytometric analysis; assay type: functional, organism-based; conditions: dose 4-16 µg/ml
Staphylococcus aureus [5] = test: Induction of drug resistance against Staphylococcus aureus Newman ATCC 25904 assessed as fold increase in MIC after 15 days by broth microdilution method; assay type: functional; conditions: time 15.0 day
Staphylococcus aureus [6] = test: Ratio of MIC for antibacterial activity against Staphylococcus aureus in presence of PG to MIC for antibacterial activity against Staphylococcus aureus; assay type: functional
Enterococcus faecalis [7] = test: Antibacterial activity against Enterococcus faecalis ATCC 29212 assessed as reduction in microbial growth incubated for 24 hrs by broth microdilution method; assay type: functional
Staphylococcus aureus [8] = test: Antibacterial activity against vancomycin-intermediate resistant Staphylococcus aureus Mu 50 assessed as reduction in microbial growth incubated for 24 hrs by broth microdilution method; assay type: functional
Staphylococcus aureus [9] = test: Antibacterial activity against Staphylococcus aureus assessed as reduction in bacterial growth incubated for 16 to 24 hrs in presence of MHB medium by serial dilution method; assay type: functional; conditions: time 16-24 hrs
Staphylococcus aureus [10] = test: Antibacterial activity against methicillin-susceptible Staphylococcus aureus Newman ATCC 25904 assessed as reduction in microbial growth incubated for 24 hrs by broth microdilution method; assay type: functional
Staphylococcus aureus [11] = test: Antibacterial activity against methicillin-susceptible Staphylococcus aureus clinical isolate 20-1 assessed as reduction in microbial growth incubated for 24 hrs by broth microdilution method; assay type: functional
Staphylococcus aureus [12] = test: Antibacterial activity against methicillin-resistant Staphylococcus aureus clinical isolate 20-2 assessed as reduction in microbial growth incubated for 24 hrs by broth microdilution method; assay type: functional
Staphylococcus aureus [13] = test: Antibacterial activity against methicillin-susceptible Staphylococcus aureus ATCC 29213 assessed as reduction in microbial growth incubated for 24 hrs by broth microdilution method; assay type: functional
Staphylococcus aureus [14] = test: Antibacterial activity against methicillin-resistant Staphylococcus aureus clinical isolate 20-3 infected in iv dosed Kunming mouse model assessed as increase in survival measured after 14 days; assay type: functional; conditions: Clinical isolate 20-3, 336 h, time 14 day
Staphylococcus aureus [15] = test: Antibacterial activity against methicillin-resistant Staphylococcus aureus clinical isolate 20-1 assessed as reduction in microbial growth incubated for 24 hrs by broth microdilution method; assay type: functional
Enterococcus faecalis [16] = test: Antibacterial activity against Enterococcus faecalis EFA 20-1 assessed as reduction in microbial growth incubated for 24 hrs by broth microdilution method; assay type: functional
Staphylococcus aureus [17] = test: Antibacterial activity against methicillin-resistant Staphylococcus aureus clinical isolate 20-3 assessed as reduction in microbial growth incubated for 24 hrs by broth microdilution method; assay type: functional
Enterococcus faecium [18] = test: Antibacterial activity against Enterococcus faecium EFM 20-1 assessed as reduction in microbial growth incubated for 24 hrs by broth microdilution method; assay type: functional
Erythrocyte = test: Hemolytic activity in rat RBC at 400 ug/ml incubated for 1 hr; assay type: toxicity, cell-based; conditions: dose 400 µg/ml
[19] = Observed volume of distribution at steady state in CD-1 mouse at 1 mg/kg, iv measured up to 24 hrs by UPLC-MS analysis; assay type: ADME, organism-based; conditions: in vivo, read-out: Vdss
Staphylococcus aureus [20] = test: Ratio of MIC for antibacterial activity against Staphylococcus aureus in presence of MHB medium to MIC for antibacterial activity against Staphylococcus aureus CAMHB medium; assay type: functional
Enterococcus faecalis [21] = test: Antibacterial activity against vancomycin-resistant Enterococcus faecalis VREfa 20-1 assessed as reduction in microbial growth incubated for 24 hrs by broth microdilution method; assay type: functional
Staphylococcus aureus [22] = test: Antibacterial activity against Staphylococcus aureus assessed as reduction in bacterial growth incubated for 16 to 24 hrs in presence of PG by serial dilution method; assay type: functional; conditions: time 16-24 hrs
Staphylococcus aureus [23] = test: Antibacterial activity against Staphylococcus aureus assessed as reduction in bacterial growth incubated for 16 to 24 hrs by serial dilution method; assay type: functional; conditions: time 16-24 hrs
Staphylococcus aureus [24] = test: Antibacterial activity against vancomycin-intermediate resistant Staphylococcus aureus ATCC 700699 assessed as reduction in microbial growth incubated for 24 hrs by broth microdilution method; assay type: functional
[25] = Solubility of compound in deionized water at >10 mg/ml at room temperature; assay type: physicochemical; conditions: buffer
Staphylococcus aureus [26] = test: Potency index, ratio of daptomycin MIC to test compound MIC for antibacterial activity against methicillin-susceptible Staphylococcus aureus Newman ATCC 25904; assay type: functional
HEK293 = test: Cytotoxicity against HEK293 cells assessed as reduction in cell viability at 80 ug/ml after 72 hrs by CCK-8 assay relative to control; assay type: toxicity, cell-based; conditions: human, hek293, 72 h, at 80 µg/mL
Enterococcus faecalis [27] = test: Potency index, ratio of daptomycin MIC to test compound MIC for antibacterial activity against Enterococcus faecalis EFA 20-1; assay type: functional
Staphylococcus aureus [28] = test: Potency index, ratio of daptomycin MIC to test compound MIC for antibacterial activity against methicillin-susceptible Staphylococcus aureus ATCC 29213; assay type: functional
[29] = Solubility of compound in saline at >10 mg/ml at room temperature; assay type: physicochemical; conditions: buffer
Enterococcus faecalis [30] = test: Potency index, ratio of daptomycin MIC to test compound MIC for antibacterial activity against Enterococcus faecalis ATCC 29212; assay type: functional
[31] = Half life in PBS at pH 7.2 to 7.4 at 37 degC for 24 hrs; assay type: ADME
[32] = Toxicity in ICR mouse excisional wound model infected with Staphylococcus aureus Newman ATCC 25904 assessed as change in weight at 20 mg/kg administered topically for 7 days; assay type: organism-based; conditions: in vivo, topical_or_ocular, 168 h, route top, time 7 day
Enterococcus faecium [33] = test: Potency index, ratio of daptomycin MIC to test compound MIC for antibacterial activity against glycopeptide-resistant Enterococcus faecium Efm-HS-0649; assay type: functional
Staphylococcus aureus [34] = test: Antibacterial activity against Staphylococcus aureus infected in zebra fish model assessed as survival rate at 10 mg/kg, ip after 8 hrs by relative to control; assay type: functional
Staphylococcus aureus [35] = test: Antimicrobial activity in Staphylococcus aureus Newman ATCC 25904 infected in ICR mouse excisional wound model assessed as decrease in bacterial growth at 20 mg/kg administered topically and measured after 24 hrs relative to control; assay type: functional; design: scale not given: the % may be the effect or the level left; conditions: route top
Staphylococcus aureus [36] = test: Antibacterial activity against Staphylococcus aureus infected in zebra fish model assessed as survival rate at 10 mg/kg, ip after 24 hrs by relative to control; assay type: functional
[37] = Toxicity in ICR mouse excisional wound model infected with Staphylococcus aureus Newman ATCC 25904 assessed as survival at 20 mg/kg administered topically for 7 days; assay type: organism-based; conditions: in vivo, topical_or_ocular, 168 h, route top, time 7 day
Enterococcus faecium [38] = test: Potency index, ratio of daptomycin MIC to test compound MIC for antibacterial activity against Enterococcus faecium EFM 20-1; assay type: functional
Staphylococcus aureus [39] = test: Potency index, ratio of daptomycin MIC to test compound MIC for antibacterial activity against methicillin-susceptible Staphylococcus aureus clinical isolate 20-1; assay type: functional

Structure (SMILES): CCCCCCCCCC(=O)N[C@@H](Cc1c[nH]c2ccccc12)C(=O)N[C@H](CC(N)=O)C(=O)N[C@@H](CC(=O)O)C(=O)N[C@@H]1C(=O)NCC(=O)N[C@@H](CCCN)C(=O)N[C@@H](CC(=O)O)C(=O)N[C@H](C)C(=O)N[C@@H](CC(=O)O)C(=O)NCC(=O)N[C@H](CO)C(=O)N[C@@H]([C@H](C)CC(=O)O)C(=O)N[C@@H](CC(=O)c2ccccc2N)C(=O)O[C@@H]1C
- MIC (Enterococcus faecium [1]): 8 µg/mL
- MIC (Staphylococcus aureus [2]): 4 µg/mL
- MIC (Staphylococcus aureus [3]): 2 µg/mL
- Activity (Staphylococcus aureus [4]): Active
- fold change (FC) (Staphylococcus aureus [5]): 4
- Ratio (Staphylococcus aureus [6]): 32
- MIC (Enterococcus faecalis [7]): 4 µg/mL
- MIC (Staphylococcus aureus [8]): 8 µg/mL
- MIC (Staphylococcus aureus [9]): 64 µg/mL
- MIC (Staphylococcus aureus [10]): 2 µg/mL
- MIC (Staphylococcus aureus [11]): 1 µg/mL
- MIC (Staphylococcus aureus [12]): 1 µg/mL
- MIC (Staphylococcus aureus [13]): 1 µg/mL
- ED50 (Staphylococcus aureus [14]): 0.2 mg/kg
- MIC (Staphylococcus aureus [15]): 1 µg/mL
- MIC (Enterococcus faecalis [16]): 4 µg/mL
- MIC (Staphylococcus aureus [17]): 1 µg/mL
- MIC (Enterococcus faecium [18]): 8 µg/mL
- Activity (Erythrocyte): Non-Toxic
- Vd [19]: 0.115 L/kg
- Ratio (Staphylococcus aureus [20]): 16
- MIC (Enterococcus faecalis [21]): 8 µg/mL
- MIC (Staphylococcus aureus [22]): 128 µg/mL
- MIC (Staphylococcus aureus [23]): 4 µg/mL (≈ 2.47 µM)
- MIC (Staphylococcus aureus [24]): 8 µg/mL

Structure (SMILES): CCCCCCCCCC(=O)N[C@@H](Cc1c[nH]c2ccccc12)C(=O)N[C@H](CC(N)=O)C(=O)N[C@@H](CC(=O)O)C(=O)N[C@@H]1C(=O)NCC(=O)N[C@@H](CCCN)C(=O)N[C@@H](CC(=O)O)C(=O)N[C@H](C)C(=O)N[C@@H](CC(=O)O)C(=O)NCC(=O)N[C@H](CO)C(=O)N[C@@H]([C@H](C)CC(=O)O)C(=O)N[C@@H](CC(=O)c2ccccc2NCCCCCC)C(=O)O[C@@H]1C
- MIC (Enterococcus faecium [1]): 0.25 µg/mL
- MIC (Staphylococcus aureus [2]): 0.5 µg/mL
- solubility [25]: Soluble
- Ratio (Staphylococcus aureus [26]): 4
- MIC (Staphylococcus aureus [3]): 0.125 µg/mL
- Activity (Staphylococcus aureus [4]): Active
- Activity (HEK293): ~ 100%
- Ratio (Enterococcus faecalis [27]): >=4
- fold change (FC) (Staphylococcus aureus [5]): 4
- Ratio (Staphylococcus aureus [6]): 512
- MIC (Enterococcus faecalis [7]): 0.5 µg/mL
- MIC (Staphylococcus aureus [8]): 2 µg/mL
- MIC (Staphylococcus aureus [9]): 4 µg/mL
- Ratio (Staphylococcus aureus [28]): >=4
- MIC (Staphylococcus aureus [10]): 0.5 µg/mL
- solubility [29]: Soluble
- Ratio (Enterococcus faecalis [30]): >=4
- MIC (Staphylococcus aureus [11]): 0.015 µg/mL
- MIC (Staphylococcus aureus [12]): 0.03 µg/mL
- MIC (Staphylococcus aureus [13]): ≤ 0.008 µg/mL
- ED50 (Staphylococcus aureus [14]): 0.29 mg/kg
- MIC (Staphylococcus aureus [15]): ≤ 0.008 µg/mL
- MIC (Enterococcus faecalis [16]): 0.5 µg/mL
- MIC (Staphylococcus aureus [17]): ≤ 0.008 µg/mL
- MIC (Enterococcus faecium [18]): 1 µg/mL
- Activity (Erythrocyte): Non-Toxic
- Vd [19]: 0.2 L/kg
- half-life [31]: 19 days
- Activity [32]: Non-Toxic
- Ratio (Enterococcus faecium [33]): 4
- survival at 10 mg/kg (Staphylococcus aureus [34]): 37.5%
- Ratio (Staphylococcus aureus [20]): 8
- Activity (Staphylococcus aureus [35]): 100%
- survival at 10 mg/kg (Staphylococcus aureus [36]): 25%
- Activity [37]: Non-Toxic
- Ratio (Enterococcus faecium [38]): >=4
- MIC (Enterococcus faecalis [21]): 0.5 µg/mL
- MIC (Staphylococcus aureus [22]): 256 µg/mL
- Ratio (Staphylococcus aureus [39]): >=4
- MIC (Staphylococcus aureus [23]): 0.5 µg/mL (≈ 0.293 µM)
- MIC (Staphylococcus aureus [24]): 2 µg/mL
